Measured values as given in ChEMBL document CHEMBL4007466, “Bioactive drimane sesquiterpenoids and aromatic glycosides from Cinnamosma fragrans” (Bioorg Med Chem Lett, 2017).

Test system: MCF7
Experiment: Antiproliferative activity against human MCF7 cells by SRB assay
Format: functional, cell-based

IC50 | SMILES
> 20 µM | COc1cc(O[C@@H]2O[C@H](CO[C@@H]3OC[C@](O)(CO)[C@H]3O)[C@@H](O)[C@H](O)[C@H]2O)cc(OC)c1OC
> 20 µM | CC1=C(C=O)[C@@]2(C)CCCC(C)(C)[C@@H]2CC1=O
3.7 µM | CC(=O)O[C@@H]1C=C2C(=O)O[C@@H]3O[C@H](C4=C[C@@H](OC(C)=O)[C@H]5C(C)(C)CCC[C@]5(C)C4=O)O[C@@]23[C@@]2(C)CCCC(C)(C)[C@H]12
> 20 µM | COc1ccc(O[C@@H]2O[C@H](CO[C@@H]3OC[C@](O)(CO)[C@H]3O)[C@@H](O)[C@H](O)[C@H]2O)cc1OC
2 µM | CC(=O)O[C@@H]1C=C([C@H]2O[C@@H]3OC(=O)C4=C[C@@H](OC(C)=O)[C@H]5C(C)(C)CCC[C@]5(C)[C@]43O2)[C@](O)(C=O)[C@@]2(C)CCCC(C)(C)[C@H]12
> 20 µM | C[C@@H]1O[C@@H](OC[C@H]2O[C@@H](OC(=O)[C@@]3(C)CCC[C@]4(C)C5=C(COC5=O)[C@@H](O)C[C@@H]34)[C@H](O)[C@@H](O)[C@@H]2O)[C@H](O)[C@H](O)[C@H]1O
> 20 µM | Cc1ccc2c(c1)C(C(C)C)CCC2=O (centres undefined)
1.6 µM | CC(=O)O[C@@H]1C=C(C=O)[C@@](O)(C=O)[C@@]2(C)CCCC(C)(C)[C@H]12
> 20 µM | CC1(C)CCC[C@]2(C)[C@H]3COC(=O)C3=CC[C@@H]12 [CINNAMOLIDE]
1.3 µM | CC(=O)O[C@@H]1C=C2C(=O)OC[C@]2(O)[C@@]2(C)CCCC(C)(C)[C@H]12 [CINNAMOSMOLIDE]
> 20 µM | O=Cc1ccc(O[C@@H]2O[C@H](CO)[C@@H](O)[C@@H](O)[C@H]2O)cc1 [HELICIDE]
12.4 µM | CC1(C)CCC[C@]2(C)[C@@H](C=O)C(C=O)=CC[C@@H]12 [POLYGODIAL]

SMILES | IC50
CC(=O)O[C@@H]1C=C([C@H]2O[C@@H]3OC(O)C4=C[C@@H](OC(C)=O)[C@H]5C(C)(C)CCC[C@]5(C)[C@]43O2)[C@](O)(C=O)[C@@]2(C)CCCC(C)(C)[C@H]12 (some centres undefined) | 0.6 µM
CC[C@@]1(O)C(=O)OCc2c1cc1n(c2=O)Cc2cc3ccccc3nc2-1 [CAMPTOTHECIN] | 0.03 µM
